Laboratory results taken from patent US20210127719A1, “AROMATIC MIXTURE FOR REDUCING THE ODOR OR TASTE OF BIOGENIC AMINES” (SYMRISE AG, priority 2016, published 2021).

Tests used:
[1] = Fish sauce triangle test with odor description
Description: The panelists received the following instruction: Please smell the three samples and mark the sensorially deviating samples with a cross. In any case, one of the samples must be ticked, even if no difference can be noted.

[2] = Panel rating of odor attributes of soy sauce containing biogenic amines, with and without added compound; conditions: panelists n=6-8, scale 0-10, versus product alone
Description: The panelists (n=6-8) rate the attributes animalistic—fishy, metallic as well as woody, sweet, flowery and terpenic, herbal on an unstructured scale from 0 (no taste)—10 (strong taste). Thereby, the order is arbitrary and not known by the panelists beforehand.

[3] = dosage of the compound 0.1 mg/kg
[4] = dosage of the compound 0.5 mg/kg

SMILES | Odor description (indication of relative change in percent) Animalistic-fishy, metallic [2, 4] | Odor description (indication of relative change in percent) Terpenig, herbal [2, 4] | Odor description (indication of relative change in percent) Woody, sweet, flowery [2, 4] | Odor description (indication of relative change in percent) Animalistic-fishy, metallic ([2]; dosage of the compound 1 mg/kg) | Odor description (indication of relative change in percent) Terpenig, herbal ([2]; dosage of the compound 1 mg/kg) | Odor description (indication of relative change in percent) Woody, sweet, flowery ([2]; dosage of the compound 1 mg/kg) | further results
CCc1ncc(C)nc1CC [2,3-Diethyl-5-methyl-pyrazine, 2,3-diethyl-5-methyl-pyrazine] |  |  |  |  |  |  | Odor description [1, 3]: metallic, dusty,
CC1CCc2nccnc21 (centres unmarked) [5-Methyl-6,7-dihydrocyclopentapyrazine, 5-methyl-6,7-dihydro-5H-cyclopenta[b]pyrazine] | −7.4% | −5.2% | −10.0% |  |  |  | Odor description ([1]; dosage of the compound 0.05 mg/kg): not fishy, less silage notes,
CC(=O)/C=C/C1C(C)=CCCC1(C)C (stereo not drawn) [Alpha ionone, (E)-4-(2,6,6-trimethylcyclohex-2-en-1-yl)but-3-en-2-one] |  |  |  | −20.5% | −7.6% | −4.4% | Odor description [1, 3]: bready, earthy,
CC1=CCCC(C)(C)C1/C=C/C(C)O (stereo not drawn) [Alpha-Ionol, (E)-4-(2,6,6-trimethylcyclohex-2-en-1-yl)but-3-en-2-ol] |  |  |  |  |  |  | Odor description [1, 4]: bready, earthy, rounded
C/C=C/C(=O)C1C(C)=CCCC1(C)C (stereo not drawn) [Alpha-damascone, (E)-1-(2,6,6-trimethylcyclohex-2-en-1-yl)but-2-en-1-one] |  |  |  |  |  |  | Odor description ([1]; dosage of the compound 0.2 mg/kg): cocoa note, sweet,
CC(=O)/C=C/C12OC1(C)CCCC2(C)C (stereo not drawn) [Beta epoxyionone, (E)-4-(1,5,5-trimethyl-7-oxabicyclo[4.1.0]heptan-6-yl)but-3-en-2-one] | −5.4% | 21.1% | 22.8% |  |  |  | 
CC(=O)/C=C/C1=C(C)CCCC1(C)C [Beta ionone, (E)-4-(2,6,6-trimethylcyclohex-1-en-1-yl)but-3-en-2-one] |  |  |  |  |  |  | Odor description (indication of relative change in percent) Animalistic-fishy, metallic ([2]; dosage of the compound 2 mg/kg): 2.4%; Odor description (indication of relative change in percent) Terpenig, herbal ([2]; dosage of the compound 2 mg/kg): −28.9%; Odor description (indication of relative change in percent) Woody, sweet, flowery ([2]; dosage of the compound 2 mg/kg): 51.9%; Odor description [1, 4]: less silage notes,
CC1=CC=C2C(C)(C)CCCC2(C)O1 (centres unmarked) [Cycloionone, 2,5,5,8a-tetramethyl-7,8-dihydro-6H-chromene] | 2.3% | 19.6% | 33.8% |  |  |  | 
CC(=O)CCC1=C(C)CCCC1(C)C [Dihydroionone] | 8.9% | −8.3% | 9.5% |  |  |  | 
CC1=CC(C)C(C=O)C(C)C1 (centres unmarked) [Isocyclocitral] |  |  |  |  |  |  | Odor description ([1]; dosage of the compound 1 mg/kg): bready, rounded,
CCC(O)CCC1C(C)CCCC1(C)C (centres unmarked) [Madranol, 1-(2,2,6-trimethylcyclohexyl)pentan-3-ol] |  |  |  | −13.9% | −6.0% | 6.6% | 
C/C=C/C=C1/C(C)=CC(=O)CC1(C)C [Tabanon, (4E)-4-[(E)-but-2-enylidene]-3,5,5-trimethyl-cyclohex-2-en-1-one] |  |  |  | −18.8% | −8.2% | 13.7% | Odor description [1, 4]: bready, less
CCCC(O)CCC1C(C)CCCC1(C)C (centres unmarked) [Timberol, 1-(2,2,6-trimethylcyclohexyl)hexan-3-ol] |  |  |  | −26.5% | −3.8% | 27.9% | 
